Test results reported in patent US10562882B2, “Piperidine derivatives for use in the treatment or prevention of psychiatric and neurological conditions” (Takeda Pharmaceutical Company Limited, priority 2013, dated 2020).

Target: human PKR1 receptors (Homo sapiens (Human), UniProt Q8TCW9)
Test: PKR1 antagonist intracellular calcium (FLIPR) assay, block of PK1-mediated calcium release
Type: cell-based
Conditions: RBL2H3 cells expressing human PKR1; PK1 at EC80; minimum of two independent assays
Procedure: Prokineticin receptor 1 (PKR1) antagonists may be functionally assessed by measurement of change in intracellular calcium levels induced by Gq mediated increase in inositol triphosphate (IP3) levels. The ability of a compound to block the intracellular release of calcium mediated by PK1 in RBL2H3 cells expressing human PKR1 receptors is determined as a measure of the compound's antagonist activity in vitro.
Approximately 10,000 cells per assay well are seeded in normal culture medium in a 384 well plate (Corning). Twenty-four hours after seeding, the cells are loaded with a calcium sensitive fluorescent dye by replacing the culture medium with assay buffer (1× Hanks buffered saline, 25 mM HEPES, 0.1% w/v fatty acid free BSA (bovine serum albumin), pH 7.4) containing 1 mM probenecid and 1× Calcium 5 Reagent (Molecular Devices). Cells are incubated at 37° C. for 1 hour to allow for dye uptake.
To test for antagonist activity, test compounds at a final concentration range between 0.32 nM-10 μM (diluted in assay buffer) are added to duplicate assay wells and allowed to incubate for 10 minutes prior to stimulation with PK1. After incubation with test compounds the assay plate is placed in a FLIPR Tetra (Molecular Devices) and PK1 (diluted in assay buffer) is added at the determined EC80 concentration (final). Ligand-dependent changes in intracellular calcium levels are determined by measuring changes in fluorescence of the dye at […] following excitation at 485 nm. […] A minimum of two IC50 values determined from independent assays are generated for each compound.

Sequence of human PKR1 receptors (Q8TCW9 whole entry): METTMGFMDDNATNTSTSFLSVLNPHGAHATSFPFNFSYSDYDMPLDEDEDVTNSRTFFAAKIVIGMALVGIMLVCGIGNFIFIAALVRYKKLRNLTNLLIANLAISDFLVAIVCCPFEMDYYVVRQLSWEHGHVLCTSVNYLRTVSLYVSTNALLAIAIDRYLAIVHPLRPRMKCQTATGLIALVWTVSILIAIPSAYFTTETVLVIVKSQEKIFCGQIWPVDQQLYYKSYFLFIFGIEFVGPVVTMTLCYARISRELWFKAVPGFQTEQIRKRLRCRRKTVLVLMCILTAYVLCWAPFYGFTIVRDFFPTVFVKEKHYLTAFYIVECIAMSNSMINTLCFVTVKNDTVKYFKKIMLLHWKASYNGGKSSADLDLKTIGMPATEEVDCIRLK

Compound | IC50
CN(C)c1cc(C(=O)N2CCCC(c3cc4ccccc4n3C)C2)ccn1 (centres unmarked) [Example 8, N,N-Dimethyl-4-[3-(1-methyl-1H-indol-2-yl)piperidine-1-carbonyl]pyridin-2-amine] | 1070 nM
CNc1cc(C(=O)N2CCCC(F)(c3ncc(Cl)cc3C)C2)ccn1 (centres unmarked) [Example 35, 4-[3-(5-Chloro-3-methylpyridin-2-yl)-3-fluoropiperidine-1-carbonyl]-N-methylpyridin-2-amine] | 290 nM
CCn1cc(C(=O)N2CCCC(c3cc4ccccc4n3C(C)C)C2)cn1 (centres unmarked) [Example 15, 2-{1-[(1-Ethyl-1H-pyrazol-4-yl)carbonyl]piperidin-3-yl}-1-(propan-2-yl)-1H-indole] | 330 nM
CCn1cc(C(=O)N2CCCC(OC)(c3ncc(Cl)cc3C)C2)cn1 (centres unmarked) [Example 40, 5-Chloro-2-[1-(1-ethyl-1H-pyrazole-4-carbonyl)-3-methoxypiperidin-3-yl]-3-methylpyridine] | 3410 nM
CNc1cc(C(=O)N2CCCC(OC)(c3ncc(Cl)cc3C)C2)ccn1 (centres unmarked) [Example 34, 4-[3-(5-Chloro-3-methylpyridin-2-yl)-3-methoxypiperidine-1-carbonyl]-N-methylpyridin-2-amine] | 470 nM
CCn1c(C2CCCN(C(=O)c3cnnc(N(C)C)c3)C2)cc2cc(Cl)ccc21 (centres unmarked) [Example 22, 5-[3-(5-Chloro-1-ethyl-1H-indol-2-yl)piperidine-1-carbonyl]-N,N-dimethylpyridazin-3-amine] | 1730 nM
CCn1c(C2CCCN(C(=O)c3cnnc(N(C)C)c3)C2)cc2ccccc21 (centres unmarked) [Example 11, 5-[3-(1-Ethyl-1H-indol-2-yl)piperidine-1-carbonyl]-N,N-dimethylpyridazin-3-amine] | 940 nM
Cc1cc(Cl)cnc1C1(F)CCCN(C(=O)c2cn(C)nc2N)C1 (centres unmarked) [Example 43, 4-[3-(5-Chloro-3-methylpyridin-2-yl)-3-fluoropiperidine-1-carbonyl]-1-methyl-1H-pyrazol-3-amine] | > 5000 nM
